Drawing on patent publication US20240209019A1, “COMPOUNDS AND METHODS FOR TREATING HYPERKALEMIA” (ARDELYX, INC., priority 2019, published 2024), this text covers pIC50 for eleven molecules.

The assay deals with HSD2 (Homo sapiens (Human), UniProt P80365). Nature of the assay: HSD2 activity: cortisol conversion in human descending colon organoid monolayer cultures (Example 112). The settings on record: human descending colon epithelial cultures on transwells; 30 minute pre-incubation, then 40 nM cortisol for four hours; cortisol HTRF assay.
Sequence of HSD2 (P80365 whole entry): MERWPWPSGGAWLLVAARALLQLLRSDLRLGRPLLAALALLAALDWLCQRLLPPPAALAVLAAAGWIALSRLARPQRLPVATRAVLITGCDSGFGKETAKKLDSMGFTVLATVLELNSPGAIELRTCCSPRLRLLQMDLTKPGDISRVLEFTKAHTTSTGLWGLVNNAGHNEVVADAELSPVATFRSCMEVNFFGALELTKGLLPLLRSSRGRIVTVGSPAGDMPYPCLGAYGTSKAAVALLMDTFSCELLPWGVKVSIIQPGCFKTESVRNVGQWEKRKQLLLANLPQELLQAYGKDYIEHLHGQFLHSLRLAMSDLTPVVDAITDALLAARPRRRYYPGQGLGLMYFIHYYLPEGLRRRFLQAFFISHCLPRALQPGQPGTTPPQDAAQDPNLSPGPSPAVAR

Method: Human descending colon epithelial stem cells were cultured as 3D organoids in accordance with Sato et al. Gastroenterology. […] Cultures were differentiated using SBM containing ENRA and 30 nM aldosterone on day 3, and cultures were used for assay on day 6 or 7. Compounds were diluted in DMSO and serial dilutions prepared by titrating in DMSO. Compounds were then diluted into DMEM/F12. Transwell plates containing descending colon cultures were washed twice with DMEM/F12 and compound was added to the apical compartment. Cells were incubated with test compound for 30 minutes at 37° C., 5% CO2 to equilibrate across the cell membrane. A second compound plate was prepared in which the serially diluted compounds in DMSO were diluted into DMEM/F12 containing 40 nM cortisol. Following the 30 minute pre-incubation step, the apical media was aspirated and compounds diluted in DMEM/F12 with 40 nM cortisol were added to the apical side of the transwell. The plate was then incubated for four hours at 37° C., 5% CO2. Cortisol levels were measured using a cortisol HTRF assay kit as described by the manufacturer (Cisbio). Concentration-response curves were then plotted and IC50 (and pIC50) values were determined using least squares non-linear regression.
Inhibition of HSD2 activity as measured by the inhibition of the conversion of cortisone to cortisol.

Regarding `COCO[C@H]1CC[C@@]2(C)[C@@H](CC[C@]3(C)[C@@H]2C(=O)C=C2[C@@H]4C[C@@](C)(C(=O)O)CC[C@]4(C)CC[C@]23C)[C@]1(C)C(=O)OCc1oc(=O)oc1C` [Compound 205-2, (2S,4aS,6aS,6bR,8aR,9S,10S,12aS,12bR,14bR)-10-(Methoxymethoxy)-2,4a,6a,6b,9,12a-hexamethyl-9-(((5-methyl-2-oxo-1,3-dioxol-4-yl)methoxy)carbonyl)-13-oxo-1,2,3,4,4a,5,6,6a,6b,7,8,8a,9,10,11,12,12a,12b,13,14b-icosahydropicene-2-carboxylic acid], the pIC50 (as a rule, the negative decadic logarithm of the IC50, by convention in mol/L) is given as 6.4.

Consider `CC(=O)O[C@H]1CC[C@@]2(C)[C@@H](CC[C@]3(C)[C@@H]2C(=O)C=C2[C@@H]4C[C@@](C)(C(=O)O)CC[C@]4(C)CC[C@]23C)[C@]1(C)C(=O)OCc1oc(=O)oc1C(C)C` [Compound 209-3, (2S,4aS,6aS,6bR,8aR,9S,10S,12aS,12bR,14bR)-10-acetoxy-9-(((5-isopropyl-2-oxo-1,3-dioxol-4-yl)methoxy)carbonyl)-2,4a,6a,6b,9,12a-hexamethyl-13-oxo-1,2,3,4,4a,5,6,6a,6b,7,8,8a,9,10,11,12,12a,12b,13,14b-icosahydropicene-2-carboxylic acid], for which the pIC50 was determined as 7.2. `Cc1oc(=O)oc1COC(=O)COC[C@@]1(C)[C@@H]2CC[C@]3(C)[C@H](C(=O)C=C4[C@@H]5C[C@@](C)(C(=O)O)CC[C@]5(C)CC[C@]43C)[C@@]2(C)CC[C@@H]1O` [Compound 240-8, (2S,4aS,6aS,6bR,8aR,9R,10S,12aS,12bR,14bR)-10-Hydroxy-2,4a,6a,6b,9,12a-hexamethyl-9-((2-((5-methyl-2-oxo-1,3-dioxol-4-yl)methoxy)-2-oxoethoxy)methyl)-13-oxo-1,2,3,4,4a,5,6,6a,6b,7,8,8a,9,10,11,12,12a,12b,13,14b-icosahydropicene-2-carboxylic acid] yielded a pIC50 of 5.

Take `CC(=O)O[C@H]1CC[C@@]2(C)[C@@H](CC[C@]3(C)[C@@H]2C(=O)C=C2[C@@H]4C[C@@](C)(C(=O)O)CC[C@]4(C)CC[C@]23C)[C@]1(C)C(=O)OCc1oc(=O)oc1C` [Compound 243-1, (2S,4aS,6aS,6bR,8aR,9S,10S,12aS,12bR,14bR)-10-Acetoxy-2,4a,6a,6b,9,12a-hexamethyl-9-(((5-methyl-2-oxo-1,3-dioxol-4-yl)methoxy)carbonyl)-13-oxo-1,2,3,4,4a,5,6,6a,6b,7,8,8a,9,10,11,12,12a,12b,13,14b-icosahydropicene-2-carboxylic acid]: the pIC50 is given as 7.5.

Take `Cc1oc(=O)oc1COC(=O)[C@]1(C)[C@@H](OC(=O)CO)CC[C@@]2(C)[C@H]1CC[C@]1(C)[C@@H]2C(=O)C=C2[C@@H]3C[C@@](C)(C(=O)O)CC[C@]3(C)CC[C@]21C` [Compound 244-1, (2S,4aS,6aS,6bR,8aR,9S,10S,12aS,12bR,14bR)-10-(2-Hydroxyacetoxy)-2,4a,6a,6b,9,12a-hexamethyl-9-(((5-methyl-2-oxo-1,3-dioxol-4-yl)methoxy)carbonyl)-13-oxo-1,2,3,4,4a,5,6,6a,6b,7,8,8a,9,10,11,12,12a,12b,13,14b-icosahydropicene-2-carboxylic acid]: the pIC50 was determined as 6.8. In turn, `COC(=O)N[C@H]1CC[C@@]2(C)[C@@H](CC[C@]3(C)[C@@H]2C(=O)C=C2[C@@H]4C[C@@](C)(C(=O)O)CC[C@]4(C)CC[C@]23C)[C@]1(C)C(=O)OCc1oc(=O)oc1C` [Compound 281-3, (2S,4aS,6aS,6bR,8aR,9S,10S,12aS,12bR,14bR)-10-((methoxycarbonyl)amino)-2,4a,6a,6b,9,12a-hexamethyl-9-(((5-methyl-2-oxo-1,3-dioxol-4-yl)methoxy)carbonyl)-13-oxo-1,2,3,4,4a,5,6,6a,6b,7,8,8a,9,10,11,12,12a,12b,13,14b-icosahydropicene-2-carboxylic acid] yielded a pIC50 of 6.7. Then `Cc1oc(=O)oc1COC(=O)[C@]1(C)[C@@H](OC(=O)NCCN2CCOCC2)CC[C@@]2(C)[C@H]1CC[C@]1(C)[C@@H]2C(=O)C=C2[C@@H]3C[C@@](C)(C(=O)O)CC[C@]3(C)CC[C@]21C` [Compound 286-4, (2S,4aS,6aS,6bR,8aR,9S,10S,12aS,12bR,14bR)-2,4a,6a,6b,9,12a-hexamethyl-9-(((5-methyl-2-oxo-1,3-dioxol-4-yl)methoxy)carbonyl)-10-(((2-morpholinoethyl)carbamoyl)oxy)-13-oxo-1,2,3,4,4a,5,6,6a,6b,7,8,8a,9,10,11,12,12a,12b,13,14b-icosahydropicene-2-carboxylic acid], with 6.9; and `CCc1oc(=O)oc1COC(=O)[C@]1(C)[C@@H](OC(C)=O)CC[C@@]2(C)[C@H]1CC[C@]1(C)[C@@H]2C(=O)C=C2[C@@H]3C[C@@](C)(C(=O)O)CC[C@]3(C)CC[C@]21C` [Compound 316-1, (2S,4aS,6aS,6bR,8aR,9S,10S,12aS,12bR,14bR)-10-acetoxy-9-(((5-ethyl-2-oxo-1,3-dioxol-4-yl)methoxy)carbonyl)-2,4a,6a,6b,9,12a-hexamethyl-13-oxo-1,2,3,4,4a,5,6,6a,6b,7,8,8a,9,10,11,12,12a,12b,13,14b-icosahydropicene-2-carboxylic acid], with 7.5.

Take `CC1(C)[C@@H](C(=O)OCC2COC(=O)O2)CC[C@]2(C)[C@H]3C(=O)C=C4[C@@H]5C[C@@](C)(C(=O)O)CC[C@]5(C)CC[C@@]4(C)[C@]3(C)CC[C@@H]12` (stereo partly drawn) [Compound 700-1, (2S,4aS,6aS,6bR,8aS,10S,12aS,12bR,14bR)-2,4a,6a,6b,9,9,12a-heptamethyl-13-oxo-10-{[(2-oxo-1,3-dioxolan-4-yl)methoxy]carbonyl}-1,2,3,4,4a,5,6,6a,6b,7,8,8a,9,10,11,12,12a,12b,13,14b-icosahydropicene-2-carboxylic acid]: the pIC50 is on record as 6.1. `CSCC(=O)O[C@H]1CC[C@@]2(C)[C@@H](CC[C@]3(C)[C@@H]2C(=O)C=C2[C@@H]4C[C@@](C)(C(=O)O)CC[C@]4(C)CC[C@]23C)[C@]1(C)C(=O)OCc1oc(=O)oc1C(C)C` [Compound 701-1, (2S,4aS,6aS,6bR,8aR,9S,10S,12aS,12bR,14bR)-2,4a,6a,6b,9,12a-hexamethyl-10-{[2-(methylsulfanyl)acetyl]oxy}-13-oxo-9-({[2-oxo-5-(propan-2-yl)-2H-1,3-dioxol-4-yl]methoxy}carbonyl)-1,2,3,4,4a,5,6,6a,6b,7,8,8a,9,10,11,12,12a,12b,13,14b-icosahydropicene-2-carboxylic acid]: the pIC50 worked out at 7. The molecule `CC(=O)O[C@]1(C)CC[C@@]2(C)[C@@H](CC[C@]3(C)[C@@H]2C(=O)C=C2[C@@H]4C[C@@](C)(C(=O)O)CC[C@]4(C)CC[C@]23C)[C@]1(C)C(=O)OCc1oc(=O)oc1C(C)C` [Compound 702-1, (2S,4aS,6aS,6bR,8aR,9S,10R,12aS,12bR,14bR)-10-(acetyloxy)-2,4a,6a,6b,9,10,12a-heptamethyl-13-oxo-9-({[2-oxo-5-(propan-2-yl)-2H-1,3-dioxol-4-yl]methoxy}carbonyl)-1,2,3,4,4a,5,6,6a,6b,7,8,8a,9,10,11,12,12a,12b,13,14b-icosahydropicene-2-carboxylic acid] gave a pIC50 of 6.4.
